In US9650390B2, “Water-soluble taxane derivatives and uses thereof” (priority 2014, dated 2017):
Like-named read-outs stand apart in the source and are kept apart here.

Assays:
[1] = In vitro dissociation in blood plasma of rabbit; type: in vitro ADME, New Zealand white rabbits; settings: fresh New Zealand white rabbit plasma, 37° C.
Experimental: The obtained water soluble taxane derivatives of the following formulae were formulated as 0.2 mg/ml aqueous solutions. […]

[2] = In vitro dissociation in blood plasma of rat; type: in vitro ADME, SD rats; settings: fresh SD rat plasma, 37° C.; for Sampling time/Dissociation percent (%) 2 min: 2 min incubation; for Sampling time/Dissociation percent (%) 5 min: 5 min incubation; for Sampling time/Dissociation percent (%) 10 min: 10 min incubation
Experimental: The obtained water soluble taxane derivatives of the following formulae were formulated as 0.2 mg/ml aqueous solutions. […] After 2 min, 5 min and 10 min of incubation, 0.2 ml of solutions were respectively taken from each of the samples, and added to acetonitrile (0.4 ml) cooled to −20° C. for precipitation of protein.

[3] = In vivo metabolic test of the water soluble paclitaxel derivatives in rats; settings: SD rats, 5 mg/kg intravenous, 5 min after administration, LC-MS
Experimental: After 5 min of administration, 0.3 ml of venous blood was taken from the retrobulbar venous plexus of the rats, placed in heparinized tubes, and centrifuged at 11.000 rpm for 5 min. Blood plasma was separated, and the concentrations of the compounds in the blood plasma were determined by liquid chromatography-mass spectrometry.

[4] = SD rats, 5 mg/kg intravenous, 5 min after administration, LC-MS
Experimental: After 5 min of administration, 0.3 ml of venous blood was taken from the retrobulbar venous plexus of the rats, placed in heparinized tubes, and centrifuged at 11,000 rpm for 5 min. Plasma was separated, and the concentrations of the compounds in the plasma were determined by liquid chromatography □-mass spectrometry.

[5] = system: human non-small cell lung cancer NCI-H446; assay: Inhibitory activity of larotaxel and tesetaxel derivatives on subcutaneously xenografted tumor NCI-H446 in nude mice; settings: D0 IV; for Weight change (%) D5: nude mice; for T/C (%) D20 / Tumor volume (mm^3) (D20) / Tumor inhibitory percent (%) D20 / Tumor volume (mm^3) (D0): NCI-H446 xenograft in nude mice; for Tumor inhibitory percent (%) D20: P = 0.000 vs control; for Tumor volume (mm^3) (D0): baseline at grouping (D0)
Description: Human […] NCI-H446 cells were subcutaneously inoculated into nude mice.

[6] = system: human prostate cancer PC-3; assay: Inhibitory activity of docetaxel derivatives on subcutaneously xenografted tumor PC-3 in nude mice; type: in vivo; settings: 14 mg/kg, D0 IV
Description: Purpose: to evaluate and compare the inhibitory activity of the water soluble docetaxel derivatives and docetaxel on subcutaneously xenografted tumor of human prostate cancer PC-3 in nude mice
Human prostate cancer PC-3 cells were subcutaneously inoculated into nude mice. After the tumor volume reached 100-150 mm^3, the animals were randomly divided into several groups, and administered with the water soluble docetaxel derivatives of the following formula and docetaxel, respectively once on the same day (D0). The tumor volume was measured 2-3 times per week, the animals were weighed and the data were recorded until day 20 (D20) after grouping.
The tumor volume (V) was calculated according to the equation: V=½×a×b^2, wherein a and b represent the length and the width, respectively.
T/C (%)=(T−T0)/(C−C0)×100, wherein T and C represent the tumor volume at the end of the experiment; and T0 and C0 represent the tumor volume at the beginning of the experiment.

[7] = D20, PC-3 xenograft in nude mice

Row | SMILES | Sampling time/Dissociation percent (%) 2 min [1] [%] | Sampling time/Dissociation percent (%) 5 min [1] [%] | Sampling time/Dissociation percent (%) 10 min [1] [%] | Sampling time/Dissociation percent (%) 2 min [2] [%] | Sampling time/Dissociation percent (%) 5 min [2] [%] | Sampling time/Dissociation percent (%) 10 min [2] [%] | mean concentration of docetaxel in the blood plasma [4] [ng/mL] | also measured
1 | CC(=O)O[C@H]1C(=O)[C@@]2(C)[C@H]([C@H](OC(=O)c3ccccc3)[C@]3(O)C[C@H](OC(=O)[C@H](OC(=O)[C@H](F)CCN(C)C)[C@@H](NC(=O)c4ccccc4)c4ccccc4)C(C)=C1C3(C)C)[C@]1(OC(C)=O)CO[C@@H]1C[C@@H]2O.Cl [Compound 01, 2′-O-[4-N,N-dimethylamino-2(R)-fluorobutyryl]paclitaxel hydrochloride] | 76.5 | 98.3 | 100 | 63.5 | 96.8 | 100 | – | detection of the administered compound in the blood plasma [3]: cannot be detected
2 | CC(=O)O[C@H]1C(=O)[C@@]2(C)[C@H]([C@H](OC(=O)c3ccccc3)[C@]3(O)C[C@H](OC(=O)[C@H](OC(=O)[C@@H](F)CCN(C)C)[C@@H](NC(=O)c4ccccc4)c4ccccc4)C(C)=C1C3(C)C)[C@]1(OC(C)=O)CO[C@@H]1C[C@@H]2O.Cl [Compound 02, 2′-O-[4-N,N-dimethylamino-2(S)-fluorobutyryl]paclitaxel hydrochloride] | 68.2 | 97.5 | 100 | 59.8 | 95.6 | 100 | – | detection of the administered compound in the blood plasma [3]: cannot be detected; mean concentration of paclitaxel in the blood plasma [3]: 1637 ng/mL
3 | CC(=O)O[C@H]1C(=O)[C@@]2(C)[C@H]([C@H](OC(=O)c3ccccc3)[C@]3(O)C[C@H](OC(=O)[C@H](OC(=O)C(F)CCN(C)C)[C@@H](NC(=O)c4ccccc4)c4ccccc4)C(C)=C1C3(C)C)[C@]1(OC(C)=O)CO[C@@H]1C[C@@H]2O.Cl (stereo partly drawn) [Compound 03, 2′-O-[4-N,N-dimethylamino-2(R,S)-fluorobutyryl]paclitaxel hydrochloride] | 75.7 | 93.5 | 100 | 61.8 | 93.1 | 100 | – | detection of the administered compound in the blood plasma [3]: cannot be detected; mean concentration of paclitaxel in the blood plasma [3]: 1825 ng/mL
4 | CC(=O)OC12COC1CC(O)C1(C)C(=O)C(O)C3=C(C)C(OC(=O)C(OC(=O)C(F)CCN(C)C)C(NC(=O)OC(C)(C)C)c4ccccc4)CC(O)(C(OC(=O)c4ccccc4)C21)C3(C)C.Cl [Compound 04, 2′-O-[4-N,N-dimethylamino-2(R)-fluorobutyryl]docetaxel hydrochloride] | 80.2 | 93.5 | 100 | 58.6 | 92.6 | 100 | 1506 | detection of the administered compound in the blood plasma [4]: cannot be detected
5 | CC(=O)O[C@@]12CO[C@@H]1C[C@H](O)[C@@]1(C)C(=O)[C@H](O)C3=C(C)[C@@H](OC(=O)[C@H](OC(=O)[C@@H](F)CCN(C)C)[C@@H](NC(=O)OC(C)(C)C)c4ccccc4)C[C@@](O)([C@@H](OC(=O)c4ccccc4)[C@H]21)C3(C)C.Cl [Compound 05, 2′-O-[4-N,N-dimethylamino-2(S)-fluorobutyryl]docetaxel hydrochloride] | 79.3 | 91.8 | 100 | 56.4 | 91.1 | 100 | 1387 | detection of the administered compound in the blood plasma [4]: cannot be detected
6 | CC(=O)O[C@@]12CO[C@@H]1C[C@H](O)[C@@]1(C)C(=O)[C@H](O)C3=C(C)[C@@H](OC(=O)[C@H](OC(=O)C(F)CCN(C)C)[C@@H](NC(=O)OC(C)(C)C)c4ccccc4)C[C@@](O)([C@@H](OC(=O)c4ccccc4)[C@H]21)C3(C)C.Cl (stereo partly drawn) [Compound 06, 2′-O-[4-N,N-dimethylamino-2(R,S)-fluorobutyryl]docetaxel hydrochloride] | 75.6 | 98.6 | 100 | 56.4 | 91.1 | 100 | 1621 | detection of the administered compound in the blood plasma [4]: cannot be detected
7 | CCN(C)CCC(F)C(=O)OC(C(=O)OC1CC2(O)C(OC(=O)c3ccccc3)C3C4(OC(C)=O)COC4CC4CC43C(=O)C(OC(C)=O)C(=C1C)C2(C)C)C(NC(=O)OC(C)(C)C)c1ccccc1.Cl [Compound C40, 2′-O-[4-N-methyl-N-ethylamino-2(R,S)-fluorobutyryl]larotaxel hydrochloride] | – | – | – | – | – | – | – | Weight change (%) D5 ([5]; 12 mg/kg): −9.1%; T/C (%) D20 ([5]; 12 mg/kg): −51%; Tumor volume (mm^3) (D20) ([5]; 12 mg/kg): 43.2 ± 12.7 mm^3; Tumor inhibitory percent (%) D20 ([5]; 12 mg/kg): 122%; Tumor volume (mm^3) (D0) ([5]; 12 mg/kg): 112.4 ± 1.8 mm^3
8 | CC(=O)O[C@@]12CO[C@@H]1CC[C@@]1(C)[C@@H]3O[C@H](CN(C)C)O[C@@H]3C3=C(C)[C@@H](OC(=O)[C@H](OC(=O)[C@H](F)CCN(C)C)[C@@H](NC(=O)OC(C)(C)C)c4ncccc4F)C[C@@](O)([C@@H](OC(=O)c4ccccc4)[C@@H]12)C3(C)C.Cl [Compound C43, 2′-O-[4-N,N-dimethylamino-2(R)-fluorobutyryl]tesetaxel hydrochloride] | – | – | – | – | – | – | – | T/C (%) D20 ([5]; 12 mg/kg): −61%; Tumor volume (mm^3) (D20) ([5]; 12 mg/kg): 31.8 ± 11.1 mm^3; Tumor inhibitory percent (%) D20 ([5]; 12 mg/kg): 153%; Tumor volume (mm^3) (D0) ([5]; 12 mg/kg): 111.5 ± 2.2 mm^3
9 | CCN(CC)CCC(F)C(=O)OC(C(=O)OC1CC2(O)C(OC(=O)c3ccccc3)C3C(C)(CCC4OCC43OC(C)=O)C3OC(CN(C)C)OC3C(=C1C)C2(C)C)C(NC(=O)OC(C)(C)C)c1ncccc1F.Cl [Compound C44, 2′-O-[4-N,N-diethylamino-2(S)-fluorobutyryl]tesetaxel hydrochloride] | – | – | – | – | – | – | – | T/C (%) D20 ([5]; 12 mg/kg): −49%; Tumor volume (mm^3) (D20) ([5]; 12 mg/kg): 41.3 ± 10.9 mm^3; Tumor inhibitory percent (%) D20 ([5]; 12 mg/kg): 123%; Tumor volume (mm^3) (D0) ([5]; 12 mg/kg): 113.6 ± 2.8 mm^3
10 | CC(=O)O[C@@]12CO[C@@H]1C[C@H](O)[C@@]1(C)C(=O)[C@H](O)C3=C(C)[C@@H](OC(=O)[C@H](O)[C@@H](NC(=O)OC(C)(C)C)c4ccccc4)C[C@@](O)([C@@H](OC(=O)c4ccccc4)[C@H]21)C3(C)C [docetaxel, reference compound] | – | – | – | – | – | – | 769 | Weight change (%) D6 ([6]; D6, nude mice): −12.3%; T/C (%) D20 [6, 7]: −27%; Tumor volume (mm^3) (D20) [6, 7]: 81.4 ± 25.1 mm^3; Tumor inhibitory percent (%) D20 ([6]; D20, PC-3 xenograft in nude mice, P = 0.000 vs control): 127%; Tumor volume (mm^3) (D0) ([6]; baseline at grouping (D0), PC-3 xenograft in nude mice): 111.5 ± 1.3 mm^3
11 | CC(=O)O[C@H]1C(=O)[C@]23C[C@H]2C[C@H]2OC[C@@]2(OC(C)=O)[C@H]3[C@H](OC(=O)c2ccccc2)[C@]2(O)C[C@H](OC(=O)[C@H](O)[C@@H](NC(=O)OC(C)(C)C)c3ccccc3)C(C)=C1C2(C)C [larotaxel, reference compound] | – | – | – | – | – | – | – | Weight change (%) D5 ([5]; 7 mg/kg): −8.4%; T/C (%) D20 ([5]; 7 mg/kg): −64%; Tumor volume (mm^3) (D20) ([5]; 7 mg/kg): 33.3 ± 12.4 mm^3; Tumor inhibitory percent (%) D20 ([5]; 7 mg/kg): 153%; Tumor volume (mm^3) (D0) ([5]; 7 mg/kg): 110.9 ± 2.4 mm^3
12 | CC(=O)O[C@@]12CO[C@@H]1CC[C@@]1(C)[C@@H]3O[C@H](CN(C)C)O[C@@H]3C3=C(C)[C@@H](OC(=O)[C@H](O)[C@@H](NC(=O)OC(C)(C)C)c4ncccc4F)C[C@@](O)([C@@H](OC(=O)c4ccccc4)[C@@H]12)C3(C)C [tesetaxel, reference compound] | – | – | – | – | – | – | – | T/C (%) D20 ([5]; 8 mg/kg): −58%; Tumor volume (mm^3) (D20) ([5]; 8 mg/kg): 33.7 ± 12.1 mm^3; Tumor inhibitory percent (%) D20 ([5]; 8 mg/kg): 146%; Tumor volume (mm^3) (D0) ([5]; 8 mg/kg): 112.8 ± 2.2 mm^3
